According to patent publication US11065319B2, “Methods for diagnosing and reducing incidences of cardiac allograft rejection” (3DT Holdings, LLC, priority 2014, dated 2021):
“And” between values parts separate entries of the source, which are not always exact repeats. Equal entries are not always repeated. “Also recorded” adds a separate entry of the source.

What was measured:
[1] = system: IgM in human heart biopsies; experiment: Displacement (elution) of IgM from human heart transplant biopsies; type: binding; conditions: for removal of IgM from heart biopsies by incubation: PC 50 mM, CRP 2.58 mg/ml, albumin 1 mg/ml; for vascular IgM in biopsy after incubation (immunohistochemistry): displacement experiments; for IgM anti-PC in biopsy eluates (ELISA): eluates after incubation of biopsies; for IgM in western blots of biopsy eluates: following incubation of biopsies
Protocol: To verify if the IgM removed from the heart biopsies is PC-specific, ELISA was performed.
One hundred and seventy-two (172) adult heart transplant patients (having a number of serial biopsies per patient in first three months post-transplant) were followed for several years and subsequently analyzed. CAV was diagnosed with serial angiographies for each patient. The percentage of microvascular IgM was quantified with double staining (IgM/CD31 or Ulex europaeus lectin). IgM and IgM anti-phosphorylcholine (PC) from biopsy eluates were determined with immunoblotting and enzyme-linked immunosorbent assays (ELISAs). Statistical analyses used univariate logistic regression, multivariate stepwise models, and Kaplan-Meier curves for different tertile groups.

[2] = system: IgM anti-PC NAbs; experiment: PC-KLH immunization of mice, serum IgM anti-PC by ELISA; type: in vivo
Description: In group 1, normal C57BL/6 mice (IgG+IgM producers) were immunized by PC-keyhole limpet hemocyanin (PC-KLH) to induce anti-PC NAb production. In group 2, IgM-deficient mice that have impaired IgM antibody production, but still have an IgG response were immunized.
As controls for PC immunization, mice of the same genotypes were vaccinated with KLH. These procedures define the conditions of a 2×2 factorial design, as depicted in Table 1, with 2 immunization conditions (PC or KLH), and 2 mouse genotypes (normal C57BL/6 and IgM-deficient). Eight weeks after immunization, all mice were euthanized by CO2 inhalation. Mouse sera from these animals was subsequently used to conduct the two in vitro studies. Additionally, the mouse serum IgM-anti-PC was analyzed using custom ELISA. Specifically, to establish the inflammatory milieu in the mouse sera used for the in vitro experiments, the sera was analyzed for pro-inflammatory TNF-α, IFN-γ, IL-1β, IL-6, IL-12 and anti-inflammatory IL-10 IL-4, IL-13, and TGF-β cytokines (SearchLight Multiplex Assay System, Aushom Biosystems).

[3] = system: cardiac allograft; experiment: Heterotopic heart transplant model of CAV with PC vaccination; type: in vivo, mice; conditions: mouse model of heart transplantation
Protocol: In addition to the mechanisms underlying MΦ differentiation and the effect of NAbs thereon, it is also important to identify what artheroprotective effect (if any) a PC vaccination may have in vivo. In an attempt to determine if experimental induction of IgM anti-PC NAbs have a beneficial effect on graft rejection and survival, experiments were conducted in an in vivo heart transplant model to measure such antibodies' affect on CAV and graft survival. Specifically, heart transplants and experimental vaccination were performed in normal mice (C57BL/6) and in IgM-deficient mice. Thereafter, IgM antibody response was measured, and a determination made as to what (if any) effect the vaccination had on graft survival.
The study used a 2×3 factorial design to test the (a) main effect of immunization defined by 3 conditions: experimental vaccination vs. negative control (vaccination with KLH vehicle) vs. positive control (intra-peritoneal mouse polyclonal IgM); and (b) main effect of mouse genotype—normal C57BL/6 vs. IgM-deficient mice—on cardiac graft rejection (see Table 2). […]
All mice underwent heart transplantation at 16 weeks of age, 8 weeks after initial vaccination. […] Cardiac allograft viability was thereafter assessed by daily abdominal palpation. […]
Graft survival curves were calculated in accordance with the Kaplan-Meier method. […]

[4] = system: human aortic and microvascular endothelial cells; experiment: Incubation of cultured endothelial cells with CRP (cell activation); type: cell-based; conditions: incubation with CRP vs controls without CRP
Description: Additionally, note the absence of ICAM-1 (subpart A of FIG. 7) and NF-κB nuclear expression (subpart C of FIG. 7) in the controls that lacked CRP exposure.

Compound	removal of IgM from heart biopsies by incubation [1]	vascular IgM in biopsy after incubation (immunohistochemistry) [1]	IgM anti-PC in biopsy eluates (ELISA) [1]	IgM in western blots of biopsy eluates [1]	production of specific IgM anti-PC NAbs [2]	graft survival [3]	ICAM-1 expression [4]	NF-κB nuclear localization [4]
C[N+](C)(C)CCOP(=O)(O)O [PC, phosphorylcholine]	removed IgM from the biopsies; also recorded: can be removed	removal of IgM; also recorded: showed biopsy removal	56.67±19.96 U/ml and 56.7±20.0 U/ml	showed IgM	induced the production of specific IgM anti-PC NAbs	positive effect on graft survival	–	–
CRP: C-reactive protein, pro-inflammatory molecule	removed IgM from the biopsies; also recorded: can be removed	removal of IgM; also recorded: showed biopsy removal	60.49±18.26 U/ml and 60.5±18.3 U/ml	showed IgM	–	–	increased ICAM-1 expression	nuclear factor-kappa B (NF-κB) nuclear localization
